In patent US20200216439A1, “HETERO-1,5,6,7-TETRAHYDRO-4H-INDOL-4-ONES” (BAYER PHARMA AKTIENGESELLSCHAFT, priority 2015, published 2020):

Molecular target: T1, catalytic domain of human Bub1 (amino acids 704-1085) (Homo sapiens, UniProt O43683)
T1 construct: catalytic domain of human Bub1 (amino acids 704-1085); His6 (N); made in house; host or cells: Hi5 insect cells
Assay: Bub1 kinase assay (TR-FRET)
Type: biochemical
Conditions: TR-FRET; ATP 10 μM, peptide substrate 1 μM; 60 min at 22° C.; average or median if tested more than once; read-out: Inhibition of Bub1 kinase IC50
Summary of the method: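 Human Bub1 catalytic domain (704-1085, His6-tagged, Hi5-expressed, ~200 ng/mL) preincubated with compound 15 min at 22 °C, then reacted 60 min at 22 °C with 10 μM ATP and 1 μM biotinylated peptide substrate, pH 7.5. EDTA stop; TR-FRET 665/620 ratio; IC50 from 4-parameter fit, 11 concentrations in duplicate.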

T1 sequence (O43683 704-1085): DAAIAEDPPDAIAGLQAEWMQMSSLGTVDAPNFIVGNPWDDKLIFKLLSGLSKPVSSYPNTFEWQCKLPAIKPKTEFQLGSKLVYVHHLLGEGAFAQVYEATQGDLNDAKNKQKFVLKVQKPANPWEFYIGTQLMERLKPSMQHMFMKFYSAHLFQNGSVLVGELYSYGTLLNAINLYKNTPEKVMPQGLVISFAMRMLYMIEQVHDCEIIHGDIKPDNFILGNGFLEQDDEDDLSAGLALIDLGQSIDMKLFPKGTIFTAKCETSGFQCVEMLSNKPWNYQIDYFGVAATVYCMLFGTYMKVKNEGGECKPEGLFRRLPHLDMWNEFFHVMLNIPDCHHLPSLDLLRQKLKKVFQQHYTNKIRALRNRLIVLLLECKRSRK

| Structure (SMILES) | IC50 |
| --- | --- |
| CC(C)(C)OC(=O)N1CC(=O)c2c([nH]c(-c3ccnc(NC(=O)C4(F)CC4)c3)c2Nc2ccccc2)C1 [Example 131, tert-Butyl 3-anilino-2-{2-([(1-fluorocyclopropyl)carbonyl]amino}pyridin-4-yl)-4-oxo-1,4,5,7-tetrahydro-6H-pyrrolo[2,3-c]pyridine-6-carboxylate] | 0.023 µM |
| CC(=O)N1CC(=O)c2c([nH]c(-c3ccncc3OCCN(C)C)c2Nc2ccccc2)C1 [Example 278, 6-Acetyl-2-3-[2-(dimethylamino)ethoxy]pyridin-4-yl-3-(phenylamino)-1,5,6,7-tetrahydro-4H-pyrrolo[2,3-c]pyridin-4-one] | 0.023 µM |
| CC(=O)N1CC(=O)c2c([nH]c(-c3ccnc(NC(=O)c4ccc(F)cc4)c3)c2Nc2ccccc2)C1 [Example 271, N-4-[6-Acetyl-4-oxo-3-(phenylamino)-4,5,6,7-tetrahydro-1H-pyrrolo[2,3-c]pyridin-2-yl]pyridin-2-yl-4-fluorobenzamide] | 0.005 µM |
| CC(=O)Nc1cc(-c2[nH]c3c(c2Nc2ccccc2)C(=O)CN(C(=O)CCO)C3)ccn1 [Example 189] | 0.016 µM |
| O=C1CN(S(=O)(=O)c2cnc[nH]2)Cc2[nH]c(-c3ccnc(NC(=O)[C@@H]4C[C@@H]4F)c3)c(Nc3ccccc3)c21 [Example 204, (1S,2S)-2-Fluoro-N-4-[6-(1H-imidazol-5-ylsulfonyl)-4-oxo-3-(phenylamino)-4,5,6,7-tetrahydro-1H-pyrrolo[2,3-c]pyridin-2-yl]pyridin-2-ylcyclopropanecarboxamide] | 0.003 µM |
| CC(=O)Nc1cc(-c2[nH]c3c(c2Nc2ccccc2)C(=O)CN(C(=O)C2CC2)C3)ccn1 [Example 30, N-{4-[6-(Cyclopropylcarbonyl)-4-oxo-3-(phenylamino)-4,5,6,7-tetrahydro-1H-pyrrolo[2,3-c]pyridin-2-yl]pyridin-2-yl}acetamide] | 0.007 µM |
| Cc1cc(F)ccc1C(=O)Nc1cc(-c2[nH]c3c(c2Nc2ccccc2)C(=O)CN(C(=O)OC(C)(C)C)C3)ccn1 [Example 263, tert-Butyl 2-2-[(4-fluoro-2-methylbenzoyl)amino]pyridin-4-yl-4-oxo-3-(phenylamino)-1,4,5,7-tetrahydro-6H-pyrrolo[2,3-c]pyridine-6-carboxylate] | 0.038 µM |
| COc1cc(C(=O)Nc2cc(-c3[nH]c4c(c3Nc3ccccc3)C(=O)CN(S(=O)(=O)N(C)C)C4)ccn2)ccc1F [Example 259, N-4-[6-(Dimethylsulfamoyl)-4-oxo-3-(phenylamino)-4,5,6,7-tetrahydro-1H-pyrrolo[2,3-c]pyridin-2-yl]pyridin-2-yl-4-fluoro-3-methoxybenzamide] | 0.003 µM |
| CCn1c2c(c(Nc3ccccc3)c1-c1ccncc1)C(=O)CN(S(C)(=O)=O)C2 [Example 65, 1-Ethyl-6-(methylsulfonyl)-3-(phenylamino)-2-(pyridin-4-yl)-1,5,6,7-tetrahydro-4H-pyrrolo[2,3-c]pyridin-4-one] | 1.68 µM |
| O=C1CN(C(=O)N2CCCCC2)Cc2[nH]c(-c3ccncc3)c(Nc3ccccc3)c21 [Example 93, 3-(phenylamino)-6-(piperidin-1-ylcarbonyl)-2-(pyridin-4-yl)-1,5,6,7-tetrahydro-4H-pyrrolo[2,3-c]pyridin-4-one] | 0.004 µM |
| CC(=O)Nc1cc(-c2[nH]c3c(c2Nc2ccccc2)C(=O)CN(C(=O)N(C)C(C)C)C3)ccn1 [Example 186, 2-(2-Acetamidopyridin-4-yl)-3-anilino-N-isopropyl-N-methyl-4-oxo-1,4,5,7-tetrahydro-6H-pyrrolo[2,3-c]pyridine-6-carboxamide] | 0.003 µM |
| COc1ccc(C(=O)Nc2cc(-c3c(Nc4ccccc4)c4c(n3C)CN(C(=O)OC(C)(C)C)CC4=O)ccn2)cc1F [Example 286, tert-Butyl 2-2-[(3-fluoro-4-methoxybenzoyl)amino]pyridin-4-yl-1-methyl-4-oxo-3-(phenylamino)-1,4,5,7-tetrahydro-6H-pyrrolo[2,3-c]pyridine-6-carboxylate] | 1.05 µM |
| CC(C)(C)OC(=O)N1CC(=O)c2c([nH]c(-c3ccncc3C(F)(F)F)c2Nc2ccccc2)C1 [Example 298, tert-Butyl 4-oxo-3-(phenylamino)-2-[3-(trifluoromethyl)pyridin-4-yl]-1,4,5,7-tetrahydro-6H-pyrrolo[2,3-c]pyridine-6-carboxylate] | 0.896 µM |
| COC(=O)N1CC(=O)c2c([nH]c(-c3ccnc(NC(=O)[C@H]4C[C@H]4F)c3)c2Nc2ccccc2)C1 [Example 141, Methyl 3-anilino-2-[2-({[(1R,2R)-2-fluorocyclopropyl]carbonyl}amino)pyridin-4-yl]-4-oxo-1,4,5,7-tetrahydro-6H-pyrrolo[2,3-c]pyridine-6-carboxylate] | 0.007 µM |
| CC(C)OC(=O)N1CC(=O)c2c([nH]c(-c3ccncc3)c2Nc2ccccc2)C1 [Example 77, Propan-2-yl 4-oxo-3-(phenylamino)-2-(pyridin-4-yl)-1,4,5,7-tetrahydro-6H-pyrrolo[2,3-c]pyridine-6-carboxylate] | 0.011 µM |
| O=C1CN(S(=O)(=O)C2CC2)Cc2[nH]c(-c3ccncc3)c(Nc3ccccc3)c21 [Example 66, 6-(Cyclopropylsulfonyl)-3-(phenylamino)-2-(pyridin-4-yl)-1,5,6,7-tetrahydro-4H-pyrrolo[2,3-c]pyridin-4-one] | 0.009 µM |
| CC(=O)Nc1cc(-c2[nH]c3c(c2Nc2ccc(F)cc2)C(=O)CN(C(=O)OC(C)C)C3)ccn1 [Example 316, Propan-2-yl 2-[2-(acetylamino)pyridin-4-yl]-3-[(4-fluorophenyl)amino]-4-oxo-1,4,5,7-tetrahydro-6H-pyrrolo[2,3-c]pyridine-6-carboxylate] | 0.025 µM |
| O=C(Nc1cc(-c2[nH]c3c(c2Nc2ccccc2)C(=O)COC3)ccn1)c1ccc(F)c(F)c1 [Example 154, N-[4-(3-Anilino-4-oxo-1,4,5,7-tetrahydropyrano[3,4-b]pyrrol-2-yl)pyridin-2-yl]-3,4-difluorobenzamide] | 0.019 µM |
| CC(C)S(=O)(=O)N1CC(=O)c2c([nH]c(-c3ccncc3)c2Nc2ccccc2)C1 [Example 67, 3-(phenylamino)-6-(propan-2-ylsulfonyl)-2-(pyridin-4-yl)-1,5,6,7-tetrahydro-4H-pyrrolo[2,3-c]pyridin-4-one] | 0.006 µM |
| CC(=O)Nc1cc(-c2[nH]c3c(c2Nc2ccccc2)C(=O)CN(C(=O)c2cncs2)C3)ccn1 [Example 175, N-{4-[3-Anilino-4-oxo-6-(1,3-thiazol-5-ylcarbonyl)-4,5,6,7-tetrahydro-1H-pyrrolo[2,3-c]pyridin-2-yl]pyridin-2-yl}acetamide] | 0.008 µM |
| N#CCN1CC(=O)c2c([nH]c(-c3ccncc3)c2Nc2ccccc2)C1 [Example 98, [4-Oxo-3-(phenylamino)-2-(pyridin-4-yl)-1,4,5,7-tetrahydro-6H-pyrolo[2,3-c]pyridin-6-yl]acetonitrile] | 0.016 µM |
| CC(C)(C)OC(=O)N1CC(=O)c2c([nH]c(-c3ccnc(NC(=O)c4cncs4)c3)c2Nc2ccccc2)C1 [Example 122, tert-Butyl 4-oxo-3-(phenylamino)-2-{2-[(1,3-thiazol-5-ylcarbonyl)amino]pyridin-4-yl}-1,4,5,7-tetrahydro-6H-pyrrolo[2,3-c]pyridine-6-carboxylate] | 0.006 µM |
| CC(=O)Nc1cc(-c2[nH]c3c(c2Nc2ccc(C)cc2)C(=O)CN(C(=O)OC(C)C)C3)ccn1 [Example 323, Propan-2-yl 2-[2-(acetylamino)pyridin-4-yl]-3-[(4-methylphenyl)amino]-4-oxo-1,4,5,7-tetrahydro-6H-pyrrolo[2,3-c]pyridine-6-carboxylate] | 0.229 µM |
| CC(=O)N1CC(=O)c2c([nH]c(-c3ccnc(C)n3)c2Nc2ccccc2)C1 [Example 26, 6-Acetyl-2-(2-methylpyrimidin-4-yl)-3-(phenylamino)-1,5,6,7-tetrahydro-4H-pyrrolo[2,3-c]pyridin-4-one] | 0.097 µM |
| CC(=O)Nc1cc(-c2[nH]c3c(c2Nc2ccccc2)C(=O)CN(S(C)(=O)=O)C3)ccn1 [Example 32, N-{4-[6-(Methylsulfonyl)-4-oxo-3-(phenylamino)-4,5,6,7-tetrahydro-1H-pyrrolo[2,3-c]pyridin-2-yl]pyridin-2-yl}acetamide] | 0.004 µM |
| CC(C)(F)C(=O)Nc1cc(-c2[nH]c3c(c2Nc2ccccc2)C(=O)CNC3)ccn1 [Example 130, N-[4-(3-Anilino-4-oxo-4,5,6,7-tetrahydro-1H-pyrrolo[2,3-c]pyridin-2-yl)pyridin-2-yl]-2-fluoro-2-methylpropanamide] | 0.662 µM |
| COc1ccc(C(=O)Nc2cc(-c3[nH]c4c(c3Nc3ccccc3)C(=O)CN(C(=O)OC(C)(C)C)C4)ccn2)cc1 [Example 270, tert-Butyl 2-2-[(4-methoxybenzoyl)amino]pyridin-4-yl-4-oxo-3-(phenylamino)-1,4,5,7-tetrahydro-6H-pyrrolo[2,3-c]pyridine-6-carboxylate] | 0.037 µM |
| CC(=O)N1CC(=O)c2c([nH]c(-c3ccncc3OCC(F)F)c2Nc2ccccc2)C1 [Example 228, 6-Acetyl-3-anilino-2-[3-(2,2-difluoroethoxy)pyridin-4-yl]-1,5,6,7-tetrahydro-4H-pyrrolo[2,3-c]pyridin-4-one] | 0.033 µM |
| CN1CCN(C(=O)N2CC(=O)c3c([nH]c(-c4ccncc4OCC4CC4)c3Nc3ccccc3)C2)CC1 [Example 252, 2-[3-(Cyclopropylmethoxy)pyridin-4-yl]-6-[(4-methylpiperazin-1-yl)carbonyl]-3-(phenylamino)-1,5,6,7-tetrahydro-4H-pyrrolo[2,3-c]pyridin-4-one] | 0.048 µM |
| O=C(CC(F)(F)F)Nc1cc(-c2[nH]c3c(c2Nc2ccccc2)C(=O)COC3)ccn1 [Example 36, 3,3,3-Trifluoro-N-{4-[4-oxo-3-(phenylamino)-1,4,5,7-tetrahydropyrano[3,4-b]pyrrol-2-yl]pyridin-2-yl}propanamide] | 0.079 µM |
